Measurements as given in ChEMBL document CHEMBL6134930, “Discovery of AB801, a Potent and Selective Inhibitor of AXL Receptor Tyrosine Kinase for Use in Cancer Therapy” (J Med Chem, 2025).
The source made the active and inactive calls. The rule behind the calls is not given here.

Tests used:
[1] = Metabolic stability in rat hepatocytes assessed as intrinsic clearance measured per 10^6 cells; type: ADME, cell-based, Hepatocyte; conditions: read-out: CLH
[2] = target: hERG (KCNH2) (Homo sapiens, UniProt Q12809); assay: Inhibition of hERG at 10 uM by high throughput cell based patch clamp assay; type: toxicity
hERG (KCNH2), sequence (Q12809 whole entry): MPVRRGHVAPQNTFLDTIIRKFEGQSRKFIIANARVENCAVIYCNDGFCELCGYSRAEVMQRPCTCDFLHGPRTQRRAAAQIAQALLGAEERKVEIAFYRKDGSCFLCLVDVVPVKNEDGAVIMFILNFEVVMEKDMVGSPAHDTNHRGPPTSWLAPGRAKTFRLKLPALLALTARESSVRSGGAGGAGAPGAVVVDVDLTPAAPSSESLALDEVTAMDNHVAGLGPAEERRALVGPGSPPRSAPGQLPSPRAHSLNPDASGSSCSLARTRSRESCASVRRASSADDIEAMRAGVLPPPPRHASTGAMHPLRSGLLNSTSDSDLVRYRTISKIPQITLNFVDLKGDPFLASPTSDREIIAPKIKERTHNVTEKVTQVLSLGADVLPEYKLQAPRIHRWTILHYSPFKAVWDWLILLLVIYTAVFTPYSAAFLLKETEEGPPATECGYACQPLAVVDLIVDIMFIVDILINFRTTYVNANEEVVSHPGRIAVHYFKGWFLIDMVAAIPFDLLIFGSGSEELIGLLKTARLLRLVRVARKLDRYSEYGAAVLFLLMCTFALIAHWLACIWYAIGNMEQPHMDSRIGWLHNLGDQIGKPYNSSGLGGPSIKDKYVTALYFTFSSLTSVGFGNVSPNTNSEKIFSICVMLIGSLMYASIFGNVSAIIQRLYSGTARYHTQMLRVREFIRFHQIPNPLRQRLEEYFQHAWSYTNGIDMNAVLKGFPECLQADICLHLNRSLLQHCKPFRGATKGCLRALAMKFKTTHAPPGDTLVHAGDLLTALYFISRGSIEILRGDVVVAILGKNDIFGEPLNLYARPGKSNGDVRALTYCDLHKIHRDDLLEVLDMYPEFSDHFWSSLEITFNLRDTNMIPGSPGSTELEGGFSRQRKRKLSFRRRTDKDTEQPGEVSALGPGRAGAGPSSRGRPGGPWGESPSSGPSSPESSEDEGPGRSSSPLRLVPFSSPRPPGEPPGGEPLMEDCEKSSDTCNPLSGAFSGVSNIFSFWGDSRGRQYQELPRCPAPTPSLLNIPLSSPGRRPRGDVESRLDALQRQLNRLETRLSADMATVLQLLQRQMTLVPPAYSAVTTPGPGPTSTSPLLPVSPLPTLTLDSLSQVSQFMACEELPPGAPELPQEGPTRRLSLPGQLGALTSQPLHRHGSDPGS

[3] = target: CYP2C19 (Homo sapiens, UniProt P33261); assay: Time dependent inhibition of CYP2C19 (unknown origin) at 30 uM measured after 30 mins relative to control; type: ADME; conditions: read-out: TDI
CYP2C19, sequence (P33261 whole entry): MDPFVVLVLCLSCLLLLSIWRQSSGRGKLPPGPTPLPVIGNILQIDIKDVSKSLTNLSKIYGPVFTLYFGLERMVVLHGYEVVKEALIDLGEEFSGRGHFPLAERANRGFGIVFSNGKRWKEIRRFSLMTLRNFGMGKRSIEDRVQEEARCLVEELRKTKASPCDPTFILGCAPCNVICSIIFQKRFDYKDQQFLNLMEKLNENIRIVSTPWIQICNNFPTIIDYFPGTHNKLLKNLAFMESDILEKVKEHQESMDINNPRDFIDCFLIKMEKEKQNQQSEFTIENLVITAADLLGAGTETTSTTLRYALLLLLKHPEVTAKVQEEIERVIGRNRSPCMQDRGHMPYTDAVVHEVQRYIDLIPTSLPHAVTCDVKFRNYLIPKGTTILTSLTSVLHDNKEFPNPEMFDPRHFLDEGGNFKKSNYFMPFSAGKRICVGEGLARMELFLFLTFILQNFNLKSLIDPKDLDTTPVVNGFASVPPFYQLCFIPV

[4] = Metabolic stability in human hepatocytes assessed as intrinsic clearance measured per 10^6 cells; type: ADME, cell-based, Hepatocyte; conditions: read-out: CLH
[5] = target: T1, CYP1A2 (Homo sapiens, UniProt P05177); assay: Time dependent inhibition of CYP1A2 (unknown origin) at 30 uM measured after 30 mins relative to control; type: ADME; conditions: read-out: TDI
T1 sequence (P05177 whole entry): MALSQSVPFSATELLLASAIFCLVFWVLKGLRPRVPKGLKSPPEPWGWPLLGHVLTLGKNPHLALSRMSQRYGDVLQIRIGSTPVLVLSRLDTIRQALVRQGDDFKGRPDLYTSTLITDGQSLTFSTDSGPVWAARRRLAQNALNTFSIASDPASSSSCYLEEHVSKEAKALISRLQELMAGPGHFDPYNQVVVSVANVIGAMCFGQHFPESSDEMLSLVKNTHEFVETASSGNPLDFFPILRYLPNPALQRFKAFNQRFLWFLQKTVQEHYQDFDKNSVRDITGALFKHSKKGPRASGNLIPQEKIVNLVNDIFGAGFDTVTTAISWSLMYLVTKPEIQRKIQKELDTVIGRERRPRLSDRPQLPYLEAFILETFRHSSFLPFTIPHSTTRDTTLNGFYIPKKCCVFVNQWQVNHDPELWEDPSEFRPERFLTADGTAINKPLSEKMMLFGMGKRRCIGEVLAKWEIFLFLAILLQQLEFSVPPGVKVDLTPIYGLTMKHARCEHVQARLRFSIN

[6] = target: T2, CYP3A4 (Homo sapiens, UniProt P08684); assay: Time dependent inhibition of CYP3A4 (unknown origin) using midazolam as substrate at 30 uM measured after 30 mins relative to control; type: ADME; conditions: probe midazolam, read-out: TDI
T2 sequence (P08684 whole entry): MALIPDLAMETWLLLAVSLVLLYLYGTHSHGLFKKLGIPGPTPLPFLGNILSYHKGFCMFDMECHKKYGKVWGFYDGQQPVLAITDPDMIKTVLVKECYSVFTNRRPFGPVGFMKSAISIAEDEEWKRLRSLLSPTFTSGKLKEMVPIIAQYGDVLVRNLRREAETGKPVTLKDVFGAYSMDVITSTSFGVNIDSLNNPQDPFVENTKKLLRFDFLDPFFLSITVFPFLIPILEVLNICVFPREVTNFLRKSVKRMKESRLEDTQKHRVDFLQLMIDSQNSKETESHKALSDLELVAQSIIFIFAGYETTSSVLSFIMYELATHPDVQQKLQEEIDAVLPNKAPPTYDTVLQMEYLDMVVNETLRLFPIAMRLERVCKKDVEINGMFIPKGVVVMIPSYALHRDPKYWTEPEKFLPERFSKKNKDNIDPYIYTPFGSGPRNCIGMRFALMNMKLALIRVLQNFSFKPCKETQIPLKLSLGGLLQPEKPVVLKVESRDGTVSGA

[7] = Efflux ratio in human Caco-2 cells; type: ADME, cell-based
[8] = Apparent permeability of compound from apical to basolateral side in human Caco-2 cells; type: ADME, cell-based; conditions: read-out: permeability
[9] = target: T3, Tyrosine-protein kinase receptor UFO (Homo sapiens, UniProt P30530); assay: Inhibition of human AXL measured after 150 mins by ATP-competitive HTRF based biochemical assay
T3 sequence (P30530 whole entry): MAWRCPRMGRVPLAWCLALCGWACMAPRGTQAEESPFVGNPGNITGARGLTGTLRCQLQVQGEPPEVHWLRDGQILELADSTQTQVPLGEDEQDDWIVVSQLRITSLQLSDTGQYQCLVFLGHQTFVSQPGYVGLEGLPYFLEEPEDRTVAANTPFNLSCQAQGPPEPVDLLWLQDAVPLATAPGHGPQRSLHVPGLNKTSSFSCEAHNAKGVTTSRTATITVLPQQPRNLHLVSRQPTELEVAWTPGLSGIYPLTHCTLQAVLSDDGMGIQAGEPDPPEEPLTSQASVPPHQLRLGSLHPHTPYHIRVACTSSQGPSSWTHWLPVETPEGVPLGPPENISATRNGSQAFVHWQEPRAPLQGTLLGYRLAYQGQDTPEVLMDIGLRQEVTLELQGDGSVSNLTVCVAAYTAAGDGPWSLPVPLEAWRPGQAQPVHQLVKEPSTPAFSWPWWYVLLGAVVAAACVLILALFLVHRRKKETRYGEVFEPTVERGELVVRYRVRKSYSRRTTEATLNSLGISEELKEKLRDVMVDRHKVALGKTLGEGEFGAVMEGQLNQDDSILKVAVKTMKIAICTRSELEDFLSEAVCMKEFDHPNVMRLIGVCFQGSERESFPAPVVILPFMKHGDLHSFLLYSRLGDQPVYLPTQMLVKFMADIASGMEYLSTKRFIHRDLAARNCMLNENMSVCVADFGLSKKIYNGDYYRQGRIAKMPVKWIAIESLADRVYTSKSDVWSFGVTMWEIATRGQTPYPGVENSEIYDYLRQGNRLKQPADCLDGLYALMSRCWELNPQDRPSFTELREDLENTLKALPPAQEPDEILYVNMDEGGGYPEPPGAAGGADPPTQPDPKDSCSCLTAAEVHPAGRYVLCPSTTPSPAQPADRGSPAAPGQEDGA

[10] = AUCinf in Sprague-Dawley rat at 2 mg/kg, po measured up to 8 hrs by LC-MS/MS analysis; type: ADME, organism-based; conditions: in vivo
[11] = target: CYP2C9 (Homo sapiens, UniProt P11712); assay: Time dependent inhibition of CYP2C9 (unknown origin) at 30 uM measured after 30 mins relative to control; type: ADME; conditions: read-out: TDI
CYP2C9, sequence (P11712 whole entry): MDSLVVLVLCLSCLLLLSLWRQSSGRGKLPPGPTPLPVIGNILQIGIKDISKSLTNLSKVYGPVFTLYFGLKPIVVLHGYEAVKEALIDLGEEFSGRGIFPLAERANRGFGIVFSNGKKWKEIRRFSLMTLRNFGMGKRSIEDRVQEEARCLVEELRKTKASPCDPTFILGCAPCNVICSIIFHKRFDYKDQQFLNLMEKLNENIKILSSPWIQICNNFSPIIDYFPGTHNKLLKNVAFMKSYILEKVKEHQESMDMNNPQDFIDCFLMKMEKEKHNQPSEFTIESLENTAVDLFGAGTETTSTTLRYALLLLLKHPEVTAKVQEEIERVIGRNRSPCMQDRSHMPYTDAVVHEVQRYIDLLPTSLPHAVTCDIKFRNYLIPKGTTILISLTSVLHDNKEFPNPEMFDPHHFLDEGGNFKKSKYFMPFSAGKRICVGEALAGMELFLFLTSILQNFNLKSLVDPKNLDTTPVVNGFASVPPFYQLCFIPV

[12] = Clearance in cynomolgus monkey at 0.5 mg/kg, iv measured up to 24 hrs by LC-MS/MS analysis; type: ADME, organism-based, Macaca fascicularis; conditions: in vivo
[13] = target: CYP2D6 (Homo sapiens, UniProt P10635); assay: Time dependent inhibition of CYP2D6 (unknown origin) at 30 uM measured after 30 mins relative to control; type: ADME; conditions: read-out: TDI
CYP2D6, sequence (P10635 whole entry): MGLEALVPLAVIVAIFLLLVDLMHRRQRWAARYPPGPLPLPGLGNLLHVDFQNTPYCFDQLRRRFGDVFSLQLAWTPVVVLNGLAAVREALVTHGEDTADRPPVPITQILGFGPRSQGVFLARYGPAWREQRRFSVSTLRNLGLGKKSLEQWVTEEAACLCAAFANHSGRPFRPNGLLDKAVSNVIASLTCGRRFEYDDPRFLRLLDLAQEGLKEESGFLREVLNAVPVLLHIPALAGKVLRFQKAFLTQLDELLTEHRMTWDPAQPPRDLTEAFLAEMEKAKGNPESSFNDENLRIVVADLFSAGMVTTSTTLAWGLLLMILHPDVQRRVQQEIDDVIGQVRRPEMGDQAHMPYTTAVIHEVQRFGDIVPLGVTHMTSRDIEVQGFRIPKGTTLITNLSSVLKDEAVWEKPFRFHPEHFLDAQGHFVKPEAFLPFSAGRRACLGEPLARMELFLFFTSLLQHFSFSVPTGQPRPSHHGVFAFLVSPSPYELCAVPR

[14] = target: T3, Tyrosine-protein kinase receptor UFO; assay: Inhibition of autophosphorylation AXL (unknown origin) expressed in HEK293 cells assessed as NanoLuc activity associated with phosphorylated proteins measured after 1 hr incubation by intracellular pAXL-ELISA; type: cell-based
[15] = Clearance in Beagle dog at 0.5 mg/kg, iv measured up to 24 hrs by LC-MS/MS analysis; type: ADME, organism-based, Canis lupus familiaris; conditions: in vivo
[16] = Clearance in CD-1 mouse at 0.5 mg/kg, iv measured up to 24 hrs by LC-MS/MS analysis; type: ADME, organism-based; conditions: in vivo
[17] = target: T4, CYP2B6 (Homo sapiens, UniProt P20813); assay: Time dependent inhibition of CYP2B6 (unknown origin) at 30 uM measured after 30 mins relative to control; type: ADME; conditions: read-out: TDI
T4 sequence (P20813 whole entry): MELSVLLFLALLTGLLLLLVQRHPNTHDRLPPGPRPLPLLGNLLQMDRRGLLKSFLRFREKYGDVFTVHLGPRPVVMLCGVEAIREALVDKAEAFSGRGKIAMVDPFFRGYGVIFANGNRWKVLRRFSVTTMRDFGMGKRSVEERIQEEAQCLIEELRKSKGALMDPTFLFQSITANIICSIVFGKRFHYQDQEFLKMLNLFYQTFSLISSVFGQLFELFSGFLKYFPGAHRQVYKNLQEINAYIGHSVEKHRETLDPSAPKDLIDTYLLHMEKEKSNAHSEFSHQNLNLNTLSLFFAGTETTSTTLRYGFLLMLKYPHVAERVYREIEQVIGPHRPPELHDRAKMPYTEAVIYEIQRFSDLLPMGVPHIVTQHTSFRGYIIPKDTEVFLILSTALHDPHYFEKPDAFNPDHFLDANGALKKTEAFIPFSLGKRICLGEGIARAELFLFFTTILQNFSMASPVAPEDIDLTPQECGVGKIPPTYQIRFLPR

[18] = target: T2, CYP3A4; assay: Time dependent inhibition of CYP3A4 (unknown origin) using testosterone as substrate at 30 uM measured after 30 mins relative to control; type: ADME; conditions: probe testosterone, read-out: TDI
[19] = target: T5, CYP2C8 (Homo sapiens, UniProt P10632); assay: Time dependent inhibition of CYP2C8 (unknown origin) at 30 uM measured after 30 mins relative to control; type: ADME; conditions: read-out: TDI
T5 sequence (P10632 whole entry): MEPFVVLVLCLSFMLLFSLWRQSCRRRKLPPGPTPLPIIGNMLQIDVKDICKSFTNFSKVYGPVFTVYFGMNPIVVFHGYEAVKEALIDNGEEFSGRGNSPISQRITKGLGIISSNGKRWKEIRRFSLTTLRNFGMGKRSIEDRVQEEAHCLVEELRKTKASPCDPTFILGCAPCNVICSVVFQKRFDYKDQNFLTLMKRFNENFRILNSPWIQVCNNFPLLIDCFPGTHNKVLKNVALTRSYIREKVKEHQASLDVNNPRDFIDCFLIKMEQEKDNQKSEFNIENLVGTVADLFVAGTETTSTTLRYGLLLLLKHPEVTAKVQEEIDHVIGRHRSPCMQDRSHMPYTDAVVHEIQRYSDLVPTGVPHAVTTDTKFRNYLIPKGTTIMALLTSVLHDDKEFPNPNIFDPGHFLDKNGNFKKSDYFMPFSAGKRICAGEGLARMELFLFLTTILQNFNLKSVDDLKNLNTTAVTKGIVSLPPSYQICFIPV

[20] = Clearance in Sprague-Dawley rat at 0.5 mg/kg, iv measured up to 24 hrs by LC-MS/MS analysis; type: ADME, organism-based; conditions: in vivo
[21] = test system: 786-0; assay: Anti-tumor activity against human 786-0 cells xenografted in mouse model assessed as tumor growth inhibition at 40 mg/kg, po once daily for 15 days; type: functional, organism-based; conditions: time 15.0 day

Cc1cccnc1-c1ccc(-c2c[nH]c3ncc(-c4ccc5c(c4)CC[C@@H](N4C6COCC4C6)CC5)cc23)cc1
hepatocyte CLint [1]: 5.4 µL/min/1e6 cells
inhibition at 10 µM [2]: 40%
inhibition at 0.5 h, 30 µM [3]: 12%
hepatocyte CLint [4]: < 2.7 µL/min/1e6 cells
inhibition at 0.5 h, 30 µM [5]: 0%
inhibition at 0.5 h, 30 µM [6]: 58%
efflux ratio [7]: 0.9
Papp A→B [8]: 0.58 ×10⁻⁶ cm/s
IC50 [9]: 0.72 nM
AUC(0-inf) [10]: 4800 ng·h/mL
inhibition at 0.5 h, 30 µM [11]: 13%
clearance [12]: 4.67 mL/min/kg
inhibition at 0.5 h, 30 µM [13]: 14%
IC50 [14]: 67 nM
clearance [15]: 11.8 mL/min/kg
clearance [16]: 3.33 mL/min/kg
inhibition at 0.5 h, 30 µM [17]: 14%
inhibition at 0.5 h, 30 µM [18]: 69%
inhibition at 0.5 h, 30 µM [19]: 0%
clearance [20]: 2.67 mL/min/kg

CCN(CC)CCNC(=O)c1c(C)[nH]c(/C=C2\C(=O)Nc3ccc(F)cc32)c1C
Activity [21]: inactive
